In ChEMBL document CHEMBL5154722, “Identification of new potent anticancer derivatives through simplifying the core structure and modification on their 14- hydroxyl group from oridonin” (Eur J Med Chem, 2022):

What follows are compounds tested on K562 (assay: Antiproliferative activity against human K562 cells assessed as reduction in cell viability incubated for 72 hrs by MTT assay). Details: K562, 72 h.
Type: functional, cell-based
Compound C=C1C(=O)[C@]23[C@H](OC(=O)/C=C/c4ccc(F)nc4)[C@H]1CC[C@H]2[C@]12C=CCC(C)(C)[C@H]1[C@H](O)[C@@]3(O)OC2 has an IC50 of 830 nM.
C=C1C(=O)[C@]23[C@H](OC(=O)CCc4ccccc4)[C@H]1CC[C@H]2[C@]12C=CCC(C)(C)[C@H]1[C@H](O)[C@@]3(O)OC2 gave an IC50 of 2740 nM.
With C=C1C(=O)[C@]23[C@H](OC(=O)c4ccc(Br)cc4)[C@H]1CC[C@H]2[C@]12CCCC(C)(C)[C@H]1[C@H](O)[C@@]3(O)OC2 the IC50 was 4380 nM.
C=C1C(=O)[C@]23[C@H](OC(=O)/C=C/c4cccnc4)[C@H]1CC[C@H]2[C@]12CCCC(C)(C)[C@H]1C[C@@]3(O)OC2 was tested, and the IC50 was 560 nM.
In the case of C=C1C(=O)[C@]23[C@H](OC(=O)CCCc4ccccc4)[C@H]1CC[C@H]2[C@]12C=CCC(C)(C)[C@H]1[C@H](O)[C@@]3(O)OC2, the IC50 is reported as 3640 nM.
C=C1C(=O)[C@]23[C@H](OC(=O)/C=C/c4cccc5c4OCO5)[C@H]1CC[C@H]2[C@]12C=CCC(C)(C)[C@H]1[C@H](O)[C@@]3(O)OC2 was tested, and the IC50 was 2800 nM.
Compound C=C1C(=O)[C@]23[C@H](OC(=O)c4cccc(C)c4)[C@H]1CC[C@H]2[C@]12CCCC(C)(C)[C@H]1[C@H](O)[C@@]3(O)OC2 has an IC50 of 2830 nM.
In the case of C=C1C(=O)[C@]23[C@H](OC(=O)/C=C/c4ccsc4)[C@H]1CC[C@H]2[C@]12CCCC(C)(C)[C@H]1C[C@@]3(O)OC2, the IC50 is reported as 800 nM.
C=C1C(=O)[C@@]23C(CC[C@@H]1[C@H]2OC(=O)c1ccc(F)cc1)[C@]12CCCC(C)(C)C1[C@H](O)[C@@]3(O)OC2 (stereo partly specified) gave an IC50 of 4630 nM.
C=C1C(=O)[C@]23[C@H](OC(=O)C=C(C)C)[C@H]1CC[C@H]2[C@]12CCCC(C)(C)[C@H]1[C@H](O)[C@@]3(O)OC2 gave an IC50 of 900 nM.
C=C1C(=O)[C@]23[C@H](OC(=O)c4ccc(C)cc4)[C@H]1CC[C@@]2(C)[C@]12CCCC(C)(C)[C@H]1[C@H](O)[C@@]3(O)OC2 was tested, and the IC50 was 3010 nM.
Work on C=C1C(=O)[C@]23[C@H](OC(=O)/C=C/c4ccc5ccccc5n4)[C@H]1CC[C@H]2[C@]12C=CCC(C)(C)[C@H]1[C@H](O)[C@@]3(O)OC2 yielded an IC50 of 2900 nM.
With C=C1C(=O)[C@]23[C@H](OC(=O)/C=C/c4cccc(Br)n4)[C@H]1CC[C@H]2[C@]12C=CCC(C)(C)[C@H]1[C@H](O)[C@@]3(O)OC2 the IC50 was 1370 nM.
Work on C=C1C(=O)[C@]23[C@H](OC(=O)/C=C/c4ccc[nH]4)[C@H]1CC[C@H]2[C@]12C=CCC(C)(C)[C@H]1[C@H](O)[C@@]3(O)OC2 yielded an IC50 of 1510 nM.
With C=C1C(=O)[C@]23[C@H](OC(=O)/C=C/c4ccc[nH]4)[C@H]1CC[C@H]2[C@]12CCCC(C)(C)[C@H]1[C@H](O)[C@@]3(O)OC2 the IC50 was 1320 nM.
C=C1C(=O)[C@]23[C@H](OC(=O)c4ccccc4)[C@H]1CC[C@H]2[C@]12CCCC(C)(C)[C@H]1[C@H](O)[C@@]3(O)OC2 gave an IC50 of 3450 nM.
For C=C1C(=O)[C@]23[C@H](OC(=O)C4CCCCC4)[C@H]1CC[C@H]2[C@]12CCCC(C)(C)[C@H]1[C@H](O)[C@@]3(O)OC2, the IC50 was 4050 nM.
Work on C=C1C(=O)[C@]23[C@H](OC(=O)c4ccccc4C)[C@H]1CC[C@H]2[C@]12CCCC(C)(C)[C@H]1[C@H](O)[C@@]3(O)OC2 yielded an IC50 of 3290 nM.
C=C1C(=O)[C@]23[C@H](OC(=O)/C=C/c4ccco4)[C@H]1CC[C@H]2[C@]12CCCC(C)(C)[C@H]1C[C@@]3(O)OC2 gave an IC50 of 1440 nM.
Compound C=C1C(=O)[C@]23[C@H](OC(=O)/C=C/c4ccccn4)[C@H]1CC[C@H]2[C@]12C=CCC(C)(C)[C@H]1[C@H](O)[C@@]3(O)OC2 has an IC50 of 1600 nM.
C=C1C(=O)[C@]23[C@H](OC(=O)/C=C/c4ccc(OC)nc4)[C@H]1CC[C@H]2[C@]12C=CCC(C)(C)[C@H]1[C@H](O)[C@@]3(O)OC2 was tested, and the IC50 was 1520 nM.
